# Reference: PubChem BioAssay AID256 (DTP/NCI, 2004)
# Toxic doses and inconclusive results are not listed.
# System: CD2F1 mice, L1210 leukemia ip, survival T/C
# Test: NCI In Vivo Anticancer Drug Screen. Data for tumor model L1210 Leukemia (intraperitoneal) in CD2F1 (CDF1) mice
# Details: higher = longer survival
# Summary of the method: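 Vehicle-treated tumor-bearing mice served as controls (C) for compound-treated mice (T). Reported figure is T divided by C.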
# [1] = endpoint: mean survival time, dose: 100.0 mg/kg/injection, schedule: Q04DX003 (ip), vehicle: saline with Tween-80
# [2] = endpoint: mean survival time, dose: 200.0 mg/kg/injection, schedule: Q04DX003 (ip), vehicle: saline with Tween-80
# [3] = endpoint: mean survival time, dose: 100.0 mg/kg/injection, schedule: Q01DX001 (ip), vehicle: saline with Tween-80
# [4] = endpoint: mean survival time, dose: 100.0 mg/kg/injection, schedule: Q01DX009 (ip), vehicle: saline with Tween-80
# [5] = endpoint: mean survival time, dose: 200.0 mg/kg/injection, schedule: Q01DX001 (ip), vehicle: saline with Tween-80
# [6] = endpoint: mean survival time, dose: 200.0 mg/kg/injection, schedule: Q01DX009 (ip), vehicle: saline with Tween-80
# [7] = endpoint: mean survival time, dose: 400.0 mg/kg/injection, schedule: Q01DX009 (ip), vehicle: saline with Tween-80
structure (smiles),measurement,setting,value
CN(N=O)C(N)=O,T/C,"endpoint: mean survival time, dose: 5.0 mg/kg/injection, schedule: Q03DX003 (ip), vehicle: saline",112 % of control
same,T/C,"endpoint: mean survival time, dose: 5.0 mg/kg/injection, schedule: Q04DX003 (ip), vehicle: saline",117 % of control
same,T/C,"endpoint: mean survival time, dose: 10.0 mg/kg/injection, schedule: Q01DX007 (ip), vehicle: saline",166 % of control
same,T/C,"endpoint: mean survival time, dose: 10.0 mg/kg/injection, schedule: Q01DX009 (ip), vehicle: saline",175 % of control
same,T/C,"endpoint: mean survival time, dose: 20.0 mg/kg/injection, schedule: Q01DX007 (ip), vehicle: saline",124 % of control
same,T/C,"endpoint: mean survival time, dose: 20.0 mg/kg/injection, schedule: Q03DX003 (ip), vehicle: saline",156 % of control
same,T/C,"endpoint: median survival time, dose: 12.0 mg/kg/injection, schedule: Q01DX009 (ip), vehicle: saline + alcohol",172 % of control
same,T/C,"endpoint: median survival time, dose: 14.0 mg/kg/injection, schedule: Q04DX003 (ip), vehicle: saline",113 % of control
same,T/C,"endpoint: median survival time, dose: 14.0 mg/kg/injection, schedule: Q07DX003 (ip), vehicle: saline + alcohol",106 % of control
same,T/C,"endpoint: median survival time, dose: 20.0 mg/kg/injection, schedule: Q07DX003 (ip), vehicle: saline + alcohol",118 % of control
same,T/C,"endpoint: median survival time, dose: 26.0 mg/kg/injection, schedule: Q07DX003 (ip), vehicle: saline + alcohol",116 % of control
same,T/C,"endpoint: median survival time, dose: 33.0 mg/kg/injection, schedule: Q07DX003 (ip), vehicle: saline + alcohol",123 % of control
same,T/C,"endpoint: median survival time, dose: 36.0 mg/kg/injection, schedule: Q04DX003 (ip), vehicle: saline + alcohol",151 % of control
same,T/C,"endpoint: median survival time, dose: 40.0 mg/kg/injection, schedule: Q04DX003 (ip), vehicle: saline",160 % of control
same,T/C,"endpoint: median survival time, dose: 50.0 mg/kg/injection, schedule: Q01DX009 (ip), vehicle: saline + alcohol",107 % of control
same,T/C,"endpoint: median survival time, dose: 60.0 mg/kg/injection, schedule: Q04DX003 (ip), vehicle: saline + alcohol",157 % of control
same,T/C,"endpoint: median survival time, dose: 67.0 mg/kg/injection, schedule: Q04DX003 (ip), vehicle: saline",167 % of control
same,T/C,"endpoint: median survival time, dose: 100.0 mg/kg/injection, schedule: Q04DX003 (ip), vehicle: saline + alcohol",97 % of control
COc1ccc(C2=CCN(c3ccc(C)cc3)P(=O)(N(CCCl)CCCl)O2)cc1 (stereo not given),T/C,"endpoint: mean survival time, dose: 31.25 mg/kg/injection, schedule: Q01DX001 (ip), vehicle: saline",100 % of control
same,T/C,"endpoint: mean survival time, dose: 62.5 mg/kg/injection, schedule: Q01DX001 (ip), vehicle: saline",100 % of control
same,T/C,"endpoint: mean survival time, dose: 125.0 mg/kg/injection, schedule: Q01DX001 (ip), vehicle: saline",97 % of control
same,T/C,"endpoint: mean survival time, dose: 250.0 mg/kg/injection, schedule: Q01DX001 (ip), vehicle: saline",102 % of control
same,T/C,"endpoint: mean survival time, dose: 500.0 mg/kg/injection, schedule: Q01DX001 (ip), vehicle: saline",91 % of control
CCCCNC(=O)C1C=C2c3cccc4c3C(CN4)CC2N(C)C1 (stereo not given),T/C,"endpoint: mean survival time, dose: 50.0 mg/kg/injection, schedule: Q04DX003 (ip), vehicle: saline with Tween-80",88 % of control
same,T/C,[1],91 % of control
same,T/C,[2],96 % of control
CC(C)=NNCCO,T/C,"endpoint: mean survival time, dose: 6.25 mg/kg/injection, schedule: Q01DX009 (ip), vehicle: saline",93 % of control
same,T/C,"endpoint: mean survival time, dose: 12.5 mg/kg/injection, schedule: Q01DX009 (ip), vehicle: saline",95 % of control
same,T/C,"endpoint: mean survival time, dose: 25.0 mg/kg/injection, schedule: Q01DX009 (ip), vehicle: saline",104 % of control
CC(=O)Nc1ccc(S(=O)(=O)/N=C2\C=CC(=O)c3ccccc32)cc1,T/C,"endpoint: mean survival time, dose: 50.0 mg/kg/injection, schedule: Q01DX009 (ip), vehicle: saline with Tween-80",98 % of control
same,T/C,[3],104 % of control
same,T/C,[4],100 % of control
same,T/C,[5],111 % of control
O=C1c2cc(Cl)ccc2OCC1Cl (stereo not given),T/C,[3],87 % of control
same,T/C,[5],91 % of control
same,T/C,"endpoint: mean survival time, dose: 400.0 mg/kg/injection, schedule: Q01DX001 (ip), vehicle: saline with Tween-80",93 % of control
O=C1CCCc2c1[nH]c1ccccc21,T/C,[4],94 % of control
same,T/C,[6],104 % of control
same,T/C,[7],102 % of control
CCCCCCC(/C=N\N=C\c1ccco1)=C\c1ccccc1,T/C,[4],92 % of control
same,T/C,[1],90 % of control
same,T/C,[6],92 % of control
same,T/C,[2],100 % of control
same,T/C,[7],100 % of control
same,T/C,"endpoint: mean survival time, dose: 400.0 mg/kg/injection, schedule: Q04DX003 (ip), vehicle: saline with Tween-80",90 % of control
